Values quoted from earlier work, collected in US5698219A, “Nanoemulsion of the oil water type, useful as an ophthalmic vehicle and process for the preparation thereof” (Laboratorios Cusi, S.A., priority 1994, dated 1997).

Conditions: EP 0 521 799 A1; benzalkonium chloride at 0.02% (w/v)

Molecule | preservative effectiveness when used individually
C[CH2][Hg][S]c1ccccc1C(=O)[O-].[Na+] [thimerosal] | lack of effectiveness
benzalkonium chloride | lack of effectiveness
